# Experimental data taken from US20220023323A1, “RESETTING BIOLOGICAL PATHWAYS FOR DEFENDING AGAINST AND REPAIRING DETERIORATION FROM HUMAN AGING” (priority 2015, published 2022).
# Experiments:
# [1] = target: Sirt1 (Homo sapiens, UniProt Q96EB6); conditions: cited from earlier work
# [2] = estimated; cited from earlier work
# [3] = no light and no contaminants in deionized/distilled H2O; cited from earlier work
# [4] = cited from earlier work
# [5] = target: PARP-1 (Homo sapiens, UniProt P09874); conditions: cited from earlier work
# [6] = test system: Sirtuins; conditions: most Sirtuins; cited from earlier work
# [7] = cited from earlier work; remark: listed apart in the source
# [8] = test system: CMV IgG; test: LabCor monthly serum marker testing: CMV IgG; type: in vivo, human; conditions: person, oral twice daily
# Description: (§1) A person weighing 88 kg at the beginning of the treatment was treated with a regimine of category 1, category 2, and category 3 molecules as noted below.
# Typical final concentrations of NMN taken by subject were 3.5 grams in 500 mL H2O, betaine were 3 grams in 500 mL H2O, H2O2 were (2 drops of 35% concentration in 500 mL H2O), and NaSH were (drops of 2 at 66 uM per drop concentration in 500 mL H2O).
# (§2) The amounts of each composition were set so that by the subject drinking the full 500 mL a final dosage approximately 1.19×10^−4 moles NMN/kg body weight per dose, 2.91×10^−4 moles betaine/kg body weight per dose, 1.17×10^−5 moles of H2O2/kg of body weight per dose, and 1.51×10^−6 moles cf NaSH/kg of body weight per dose was given to the subject through drinking the 500 mL solution.
# (§3) By taking two similar dosages per day, the sum of the two daily equal allotments was • Nicotinamide Mononucleotide (NMN) dosage−2.38×10^−4 moles/Kg body weight/day • The betaine dosage−5.82×10^−4 moles/Kg body weight/day • The Hydrogen Peroxide (H2O2) dosage−2.34×10^−5 moles/Kg body weight/day • The Sodium Hydrogen Sulfide (NaSH) dosage−3.02×10^−6 moles/Kg body weight/day
# (§4) The subject self-administered the formulations orally through drinking the solution at approximately 7AM and 7 PM each day. These times were chosen because they approximated the subjects' biological clock peaks of NAD+ as determined by Ramsey K 2009. This had the effect of pulsing the ingredients into the body twice a day. approximately timed with the biological clock of the subject.
# (§5) LabCor Inc. performed the marker testing using standard protocols on a monthly basis. Blood draw times ranged between 8:19 am and 8:54 am. Inflammatory measurements are correlated to the biological clock. LabCor tested levels of CMV IgG, C-Reactive Protein, Tumor Necrosis Factor-Alpha, and Interleukin-6 in Serum.
# [9] = test system: C-Reactive Protein; test: LabCor monthly serum marker testing: C-Reactive Protein; type: in vivo, human; conditions: for C-Reactive Protein: serum, person, oral twice daily, baseline 2.77
# Description: The amounts of each composition were set so that by the subject drinking the full 500 mL a final dosage approximately 1.19×10^−4 moles NMN/kg body weight per dose, […] through drinking the 500 mL solution. […]
# as §4, §5
# [10] = test system: Tumor Necrosis Factor-Alpha; test: LabCor monthly serum marker testing: Tumor Necrosis Factor-Alpha; type: in vivo, human; conditions: person, oral twice daily, baseline 1.1
# Description: The amounts of each composition were set so that by the […] given to the subject through drinking the 500 mL solution. […]
# as §4, §5
# [11] = test system: Interleukin-6; test: LabCor monthly serum marker testing: Interleukin-6; type: in vivo, human; conditions: person, oral twice daily, study month 3: NMN alone, 3rd month, baseline 1.3
# Description: as §1, §2, §3, §4
# LabCor Inc. performed the marker testing using standard protocols on a monthly basis. […]
# [12] = test system: Inflammation Score; test: Inflammation Score (sum of the markers) and aging prediction after Arai 2015; type: in vivo, human; conditions: person, baseline 5.17
# Excerpt: Inflammation markers can be analyzed for aging including those markers found in the study by Arai in 2015. Aria found inflammation markers that were predictive of who would continue to live (life-span) and who would be physically and cognitively healthy (health-span). The markers used were CMV IgG, IL-6, TNF-alpha and CRP.
# as §5
# In the baseline condition for the subject, both C-reactive Protein (2.77 mg/L) and Interleukin-6 (1.3 pg/m14 measurements were above the “unrelated family” level (0.7 mg/l and 1.13 pg/mL) (Arai Y 2015, Table 1) as well as the “offspring” level (0.7 mg/l and 1.03 pg/mL) (Arai Y. 2015, Table 1) respectively. The […] subject of this study has a similar age to the “offspring” group and the “unrelated family” group of Arai. These two inflammation test scores effect the prediction algorithm to predict a worse aging outcome for the subject than the “offspring” or “unrelated family” groups of Arai at baseline.
# [13] = NMN given to mice; cited from earlier work
# [14] = target: T1, CD38 (Homo sapiens, UniProt P28907); conditions: CD38 substrate; cited from earlier work
# T1 sequence (P28907 1-300): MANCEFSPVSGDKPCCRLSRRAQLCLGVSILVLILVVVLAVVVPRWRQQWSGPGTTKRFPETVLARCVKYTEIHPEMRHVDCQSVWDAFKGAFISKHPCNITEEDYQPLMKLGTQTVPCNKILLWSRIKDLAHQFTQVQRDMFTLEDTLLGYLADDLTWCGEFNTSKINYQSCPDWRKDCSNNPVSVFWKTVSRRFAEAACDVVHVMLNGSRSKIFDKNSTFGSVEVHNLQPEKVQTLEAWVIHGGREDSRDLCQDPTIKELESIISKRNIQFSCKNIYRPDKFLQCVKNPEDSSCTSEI
# [15] = cited from earlier work; remark: listed apart in the source
# [16] = study month 1: NMN alone, 1st month
# [17] = study month 2: NMN alone, 2nd month
# [18] = study month 3: NMN alone, 3rd month
# Sequence of Sirt1 (Q96EB6 whole entry): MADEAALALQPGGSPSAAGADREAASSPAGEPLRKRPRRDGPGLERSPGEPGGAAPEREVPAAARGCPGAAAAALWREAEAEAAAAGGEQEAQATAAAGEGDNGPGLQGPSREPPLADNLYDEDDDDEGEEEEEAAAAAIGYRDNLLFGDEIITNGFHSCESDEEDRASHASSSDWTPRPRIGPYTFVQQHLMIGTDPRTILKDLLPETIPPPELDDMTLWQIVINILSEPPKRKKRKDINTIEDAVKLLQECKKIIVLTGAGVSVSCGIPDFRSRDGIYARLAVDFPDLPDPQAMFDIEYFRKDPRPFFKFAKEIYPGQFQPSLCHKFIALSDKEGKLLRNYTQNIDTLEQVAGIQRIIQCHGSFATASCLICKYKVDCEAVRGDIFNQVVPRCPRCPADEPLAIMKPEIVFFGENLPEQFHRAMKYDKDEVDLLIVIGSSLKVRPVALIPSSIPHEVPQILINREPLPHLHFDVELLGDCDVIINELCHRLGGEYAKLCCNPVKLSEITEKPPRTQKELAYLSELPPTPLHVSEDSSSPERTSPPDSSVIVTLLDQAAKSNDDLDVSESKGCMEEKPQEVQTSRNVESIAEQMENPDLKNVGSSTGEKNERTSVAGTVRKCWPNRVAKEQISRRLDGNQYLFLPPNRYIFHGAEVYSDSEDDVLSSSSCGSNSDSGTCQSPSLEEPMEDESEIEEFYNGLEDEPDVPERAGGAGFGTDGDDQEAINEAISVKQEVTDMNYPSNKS
# Sequence of PARP-1 (P09874 whole entry): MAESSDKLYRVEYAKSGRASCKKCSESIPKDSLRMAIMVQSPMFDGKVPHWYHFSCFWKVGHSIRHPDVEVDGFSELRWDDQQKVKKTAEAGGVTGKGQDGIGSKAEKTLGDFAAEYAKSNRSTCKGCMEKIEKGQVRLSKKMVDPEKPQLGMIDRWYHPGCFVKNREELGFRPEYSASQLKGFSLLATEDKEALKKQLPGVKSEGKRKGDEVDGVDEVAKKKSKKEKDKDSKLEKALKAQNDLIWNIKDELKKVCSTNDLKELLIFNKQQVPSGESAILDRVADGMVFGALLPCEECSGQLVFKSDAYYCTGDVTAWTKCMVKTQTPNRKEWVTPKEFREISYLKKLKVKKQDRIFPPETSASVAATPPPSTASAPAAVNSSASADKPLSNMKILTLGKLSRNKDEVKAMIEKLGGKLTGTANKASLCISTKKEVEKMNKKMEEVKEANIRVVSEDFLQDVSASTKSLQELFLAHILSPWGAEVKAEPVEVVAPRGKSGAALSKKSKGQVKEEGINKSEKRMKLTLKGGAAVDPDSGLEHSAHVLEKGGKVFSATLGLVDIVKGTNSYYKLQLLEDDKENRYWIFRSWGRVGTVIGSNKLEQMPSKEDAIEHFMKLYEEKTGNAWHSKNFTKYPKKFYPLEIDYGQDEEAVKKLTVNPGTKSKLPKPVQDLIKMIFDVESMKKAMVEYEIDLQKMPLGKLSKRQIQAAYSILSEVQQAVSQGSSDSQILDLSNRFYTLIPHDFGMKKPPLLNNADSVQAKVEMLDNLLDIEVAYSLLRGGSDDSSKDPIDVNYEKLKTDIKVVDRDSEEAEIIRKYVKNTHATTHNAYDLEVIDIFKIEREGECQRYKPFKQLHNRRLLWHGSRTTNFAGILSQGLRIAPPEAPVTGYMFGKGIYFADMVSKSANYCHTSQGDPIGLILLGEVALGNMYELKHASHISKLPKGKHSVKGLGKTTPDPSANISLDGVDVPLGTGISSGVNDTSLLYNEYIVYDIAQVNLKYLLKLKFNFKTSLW
smiles,measurement,setting,value
"OO [H2O2, hydrogen peroxide]",extracellular H2O2 inhibition of Sirt1,[1]; extracellular H2O2,1 µmol
same,extracellular concentration that inhibits Sirt1,[1]; oxidizing critical cysteine residues in the Sirtuin active center,1 µM
same,fraction absorbed by the gut,[2],~50%
same,degradation rate,[3],about 10 %/year
"S [H2S, hydrogen sulfide]",half-life,[4]; under in vivo conditions,between seconds and minutes
"NC(=O)c1ccc[n+]([C@@H]2O[C@H](COP(=O)([O-])OP(=O)(O)OC[C@H]3O[C@@H](n4cnc5c(N)ncnc54)[C@H](O)[C@@H]3O)[C@@H](O)[C@H]2O)c1 [NAD+, nicotinamide adenine dinucleotide]",Km,"[5]; PARP-1, substrate NAD+",20 to 60 µM
same,Km of PARP-1 lower than Sirtuin-1,[5]; PARP-1 compared to Sirt1,5 fold
same,Km,[6],100 to 300 µM
same,absorption through the digestive system,[7]; in vivo,not absorbed well
"NC(=O)c1ccc[n+]([C@@H]2O[C@H](COP(=O)([O-])O)[C@@H](O)[C@H]2O)c1 [NMN, Nicotinamide mononucleotide]",CMV IgG,[8]; [16],0
same,CMV IgG,[8]; [17],0
same,CMV IgG,[8]; [18],0
same,CRP,"[9]; after two months of treatment with NMN, subject",0.43 mg/L
same,C-Reactive Protein,[9]; [17],0.43 mg/L
same,C-Reactive Protein,[9]; [18],0.53 mg/L
same,Tumor Necrosis Factor-Alpha,[10]; [16],0.9 pg/mL
same,Tumor Necrosis Factor-Alpha,[10]; [17],1.1 pg/mL
same,Tumor Necrosis Factor-Alpha,[10]; [18],1.1 pg/mL
same,Interleukin-6 Serum,[11],0.9 pg/mL
same,Inflammation Score,[12]; [16],8.55
same,Inflammation Score,[12]; [17],2.23
same,Inflammation Score,[12]; [18],2.53
same,time to create NAD+ out of the NMN,[13],15 min
same,kcat relative to that of NAD+,[14],5 fold
"NC(=O)c1ccc[n+]([C@@H]2O[C@H](CO)[C@@H](O)[C@H]2O)c1 [NR, nicotinamide riboside]",reaching muscle,[7]; orally delivered,largely not reach muscle
"S [NaHS, sodium hydrosulfide]",time to increase of H2S concentration,[4]; H2S donors,within seconds to minutes
"C[S+](CC[C@H](N)C(=O)O)C[C@H]1O[C@@H](n2cnc3c(N)ncnc32)[C@H](O)[C@@H]1O (stereo partly drawn) [SAM, S-5′-adenosyl-L-methionine]",fraction that gets into the body when ingested,[15],about 2%
